Series [1] is described as follows: Pharmacokinetic analysis following oral administration to beagle dogs. It counts as in vivo. To be noted: 1 mg/kg. The procedure: (§1) Pharmacokinetic analysis was performed on various test compounds following intravenous or oral administration to beagle dogs.
(§2) For pharmacokinetic analysis of intravenously administered compounds, the test compounds were formulated in 5% Ethanol, 55% PEG 300, and 40% water at 0.1 mg/mL for IV infusion. For pharmacokinetic analysis of orally administered compounds, the test compounds were formulated as an aqueous suspension in 0.1% Tween 20, 0.5% HPMC LV 100 in Di Water at 1 mg/kg.
(§3) Each dosing group consisted of 3 male, non-naïve purebred beagle dogs. At dosing, the animals weighed between 10 to 13 kg. The animals were fasted overnight prior to dose administration and up to 4 hr after dosing. For studies of intravenous administration, the test article was administered to the animals by intravenous infusion over 30 min. The rate of infusion was adjusted according to the body weight of each animal to deliver a dose of 0.5 mg/kg. For studies of oral administration, the test article was administered according to the body weight of each animal to deliver a dose of 1 mg/kg.
For pharmacokinetic analysis of orally administered compounds, serial venous blood samples (approximately 0.3 mL each) were taken from each animal at time points of 0, 0.25, 0.50, 1.0, 2.0, 4.0, 6.0, 8.0, 12.0 and 24.0 hours after dosing. Blood samples were collected, prepared and analyzed in a similar way to the intravenous studies described above. Non-compartmental pharmacokinetic analysis was performed on the plasma concentration-time data. The resulting data are shown in the last three columns of Table 4. In Table 4, F (%) refers to oral bioavailability. Cmax refers to the peak plasma concentration of the compound after administration. AUC refers to area under the curve and is a measure of total plasma exposure of the indicated compound.

Series [2] is described as follows: Pharmacokinetic analysis following intravenous administration to beagle dogs. In kind it is in vivo. To be noted: male, dog, 0.5 mg/kg; for Vd: read-out: Vss. As to the method:
as §1, §2, §3
For pharmacokinetic analysis of intravenously administered compounds, serial venous blood samples (approximately 1 mL each) were taken from each animal at 0, 0.250, 0.483, 0.583, 0.750, 1.00, 1.50, 2.00, 4.00, 8.00, 12.0, and 24.0 hours after dosing. The blood samples were collected into Vacutainer™ tubes containing EDTA-K2 as the anti-coagulant and were immediately placed on wet ice pending centrifugation for plasma. An LC/MS/MS method was used to measure the concentration of the test compound in plasma. An aliquot of 100 μL of each plasma sample was added to a clean 96 well plate, and 400 μL of cold acetonitrile/internal standard solution (ACN)/(ISTD) was added. After protein precipitation, an aliquot of 110 μL of the supernatant was transferred to a clean 96-well plate and diluted with 300 μL of water. An aliquot of 25 μL of the above solution was injected into a TSQ Quantum Ultra LC/MS/MS system utilizing a Hypersil Gold C18 HPLC column (50×3.0 mm, 5 μm; Thermo-Hypersil Part #25105-053030). An Agilent 1200 series binary pump (P/N G1312A Bin Pump) was used for elution and separation, and an HTS Pal autosampler (LEAP Technologies, Carrboro, N.C.) was used for sample injection. A TSQ Quantum Ultra triple quadrupole mass spectrometer was utilized in selective reaction monitoring mode (Thermo Finnigan, San Jose, Calif.). Liquid chromatography was performed using two mobile phases: mobile phase A contained 1% acetonitrile in 2.5 mM ammonium formate aqueous solution with pH of 3.0, and mobile phase B contained 90% acetonitrile in 10 mM ammonium formate with pH of 4.6. Non-compartmental pharmacokinetic analysis was performed on the plasma concentration-time data. The resulting data are shown in the first three columns of Table 4. In Table 4, CL refers to clearance, which characterizes the rate at which drug is removed from plasma. The lower the clearance of a drug is, the longer the elimination half-life is in the body. Vss refers to the steady state volume of distribution and indicates how well a drug is distributed into the tissues. The larger the Vss is, the longer the elimination half-life is in the body. MRT refers to mean residence time, which is a measure of the average time molecules exist in the body.

Another series has as its target OCT2 (Homo sapiens (Human), UniProt O15244). Description: OCT2 inhibition assay (14C-TEA uptake, OCT2-transfected MDCKII cells). It counts as cell-based. As to the method: On assay day, cells were trypsinized and resuspended in Krebs-Henseleit Buffer (KHB), pH 7.4 at […]. Cells were preincubated for 15 min in assay plate before addition of test compound or substrate. Test compounds were serially diluted in DMSO and then spiked (2 μL) into in 0.4 mL KHB buffer containing wild-type or OCT2-transfected cells and incubated for 10 minutes. Assay was initiated with the addition of 0.1 mL of 100 μM ^14C-TEA in KHB buffer (20 μM final concentration after mixing). The concentration of TEA is based on the Km. After 10 minutes of incubation, the assay mixture was quenched with addition of 0.5 mL of ice-cold 1×PBS buffer. Samples were then centrifuged at 1000 rpm for 5 min and supernatants were removed. Wash steps were repeated four times with ice-cold PBS. Finally, the cell pellets were lysed with 0.2N NaOH and let sit at room temperature for at least 30 min to ensure complete lysis. Samples were then counted on liquid scintillation counter and dpm counts were used to perform the following calculations.

The nature of another series: in vitro. To be noted: human.
For another series, the target named is PXR (Homo sapiens (Human), UniProt O75469). Description: Human PXR activation assay (luciferase reporter gene assay, DPX2 cells). It counts as cell-based. The settings on record: human. As to the method: A stably transformed tumor cell line (DPX2) was plated on 96-well microtiter plates. DPX2 cells harbor the human PXR gene (NR112) and a luciferase reporter gene linked to two promoters identified in the human CYP3A4 gene, namely XREM and PXRE. […] The number of viable cells was determined and the reporter gene activity was assessed. Positive control: […]

Setting [3] is: plasma, beagle dogs, IV infusion over 30 min.
The mark [4] stands for this setting: OCT2 mediated uptake of 14C-TEA (20 μM), MDCKII cells, read-out: IC50.

Structures are written as SMILES. Like-named read-outs stand apart in the source and are kept apart here.

Sequence of PXR (O75469 whole entry): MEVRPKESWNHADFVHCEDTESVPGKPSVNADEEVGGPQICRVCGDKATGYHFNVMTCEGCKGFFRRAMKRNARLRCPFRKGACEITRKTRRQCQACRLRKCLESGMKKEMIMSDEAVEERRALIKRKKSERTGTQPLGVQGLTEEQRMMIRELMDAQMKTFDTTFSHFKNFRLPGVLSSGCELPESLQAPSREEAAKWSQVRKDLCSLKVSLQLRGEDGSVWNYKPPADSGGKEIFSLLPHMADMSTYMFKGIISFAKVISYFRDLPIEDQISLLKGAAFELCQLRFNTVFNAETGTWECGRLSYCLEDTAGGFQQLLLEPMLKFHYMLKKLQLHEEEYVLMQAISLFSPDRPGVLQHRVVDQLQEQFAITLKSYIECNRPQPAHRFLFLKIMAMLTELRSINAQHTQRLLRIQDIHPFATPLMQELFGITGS
Sequence of OCT2 (O15244 whole entry): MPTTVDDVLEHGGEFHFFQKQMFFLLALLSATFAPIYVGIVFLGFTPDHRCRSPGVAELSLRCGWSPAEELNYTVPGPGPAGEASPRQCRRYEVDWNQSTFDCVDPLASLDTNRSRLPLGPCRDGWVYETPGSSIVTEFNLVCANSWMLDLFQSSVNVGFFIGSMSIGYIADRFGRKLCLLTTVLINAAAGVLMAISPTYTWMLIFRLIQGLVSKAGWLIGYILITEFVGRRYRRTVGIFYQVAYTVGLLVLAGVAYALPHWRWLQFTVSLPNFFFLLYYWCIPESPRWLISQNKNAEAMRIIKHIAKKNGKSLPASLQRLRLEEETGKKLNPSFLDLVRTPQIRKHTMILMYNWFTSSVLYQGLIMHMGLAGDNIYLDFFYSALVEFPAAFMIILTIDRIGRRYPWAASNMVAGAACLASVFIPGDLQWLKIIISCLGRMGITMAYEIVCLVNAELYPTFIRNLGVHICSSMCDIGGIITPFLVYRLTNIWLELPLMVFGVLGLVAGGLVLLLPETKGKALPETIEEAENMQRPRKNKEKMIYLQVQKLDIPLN

With `O=C(NCc1ccc(F)cc1F)c1cn2c(c(O)c1=O)C(=O)N1[C@H]3CC[C@H](C3)O[C@@H]1C2` [Compound 2, (2R,5S,13aR)-N-(2,4-difluorobenzyl)-8-hydroxy-7,9-dioxo-2,3,4,5,7,9,13,13a-octahydro-2,5-methanopyrido[1′,2′:4,5]pyrazino[2,1-b][1,3]oxazepine-10-carboxamide], in series [1] (male, beagle, dog, in vivo, po), the AUC stood at 66.1 µM·h, the Cmax was determined as 7.8 µM and the “F (%) aqueous suspension” value is 40.7%. In series [2] (beagle, in vivo, iv), this compound had an MRT of 6.5 h and a clearance of 0.5 mL/min/kg. For the same compound, the Vd in series [2] (setting [3]) is 0.2 L/kg. Moreover, on OCT2 (setting [4]), the IC50 was 0.24 µM. In addition, the CC50 at 5 days in “in vitro” (CC50 nM in MT-4) is 3110 nM. On PXR, this compound registered an Emax at 24 h, 15 µM of 4.5%.
In the case of `O=C(NCc1ccc(F)cc1F)c1cn2c(c(O)c1=O)C(=O)N1[C@@H]3CC[C@@H](C3)O[C@H]1C2` [Compound 3, (2S,5R,13aS)-N-(2,4-difluorobenzyl)-8-hydroxy-7,9-dioxo-2,3,4,5,7,9,13,13a-octahydro-2,5-methanopyrido[1′,2′:4,5]pyrazino[2,1-b][1,3]oxazepine-10-carboxamide], in series [1] (male, beagle, dog, in vivo, po), the AUC stood at 9.2 µM·h, the concentration peaked (Cmax) at 1.2 µM and the “F (%) aqueous suspension” value is reported as 18.7%. In series [2] (beagle, in vivo, iv), this compound gave an MRT of 4.9 h and a clearance of 0.783 mL/min/kg. Moreover, in series [2] (setting [3]), the Vd came to 0.23 L/kg. For the same compound, the IC50 at OCT2 (setting [4]) was found to be 0.25 µM. In “in vitro” (CC50 nM in MT-4), this compound showed a CC50 at 5 days of 38400 nM. This compound also gave an Emax at 24 h, 15 µM on PXR of 7.5%.
As for `O=C(NCc1c(F)cc(F)cc1F)c1cn2c(c(O)c1=O)C(=O)N1[C@H]3CC[C@H](C3)[C@@H]1C2` [Compound 41, (1R,4S,12aR)-7-hydroxy-6,8-dioxo-N-(2,4,6-trifluorobenzyl)-1,2,3,4,6,8,12,12a-octahydro-1,4-methanodipyrido[1,2-a:1′,2′-d]pyrazine-9-carboxamide], in series [1] (male, beagle, dog, in vivo, po), the AUC is 16.3 µM·h, the concentration peaked (Cmax) at 2.4 µM and the “F (%) aqueous suspension” value was 10.7%. In addition, in series [2] (beagle, in vivo, iv), the MRT worked out at 7.5 h and the clearance was 0.25 mL/min/kg. The Vd in series [2] (setting [3]) amounted to 0.11 L/kg. The same compound yielded an IC50 on OCT2 of 2.82 µM. The compound also gave a CC50 at 5 days in “in vitro” (CC50 nM in MT-4) of 15700 nM. This compound showed an Emax at 24 h, 15 µM at PXR of 11.5%.
`O=C(NCc1c(F)cc(F)cc1F)c1cn2c(c(O)c1=O)C(=O)N1[C@H]3CC[C@H](C3)O[C@@H]1C2` [Compound 42, (2R,5S,13aR)-8-hydroxy-7,9-dioxo-N-(2,4,6-trifluorobenzyl)-2,3,4,5,7,9,13,13a-octahydro-2,5-methanopyrido[1′,2′:4,5]pyrazino[2,1-b][1,3]oxazepine-10-carboxamide]: the “F (%) aqueous suspension” value in series [1] (beagle dogs, oral, aqueous suspension) was 28.0%. Besides, the AUC in series [1] (male, dog, plasma, beagle dogs, oral, aqueous suspension, read-out: AUC (μM*h) aqueous suspension) was found to be 28.6 µM·h. In addition, the Cmax in series [1] (male, dog, plasma, beagle dogs, oral, aqueous suspension, read-out: Cmax (μM) aqueous suspension) was determined as 4.5 µM. In addition, in series [2] (plasma, beagle dogs, IV infusion over 30 min, read-out: CL (converted)), the clearance was 0.333 mL/min/kg. In series [2] (plasma, beagle dogs, IV infusion over 30 min, read-out: MRT), the MRT worked out at 7.1 h. Moreover, in series [2] (setting [3]), the Vd turned out to be 0.15 L/kg. In addition, the IC50 at OCT2 (setting [4]) came to 0.487 µM. Moreover, in the series “in vitro” (MT-4 cells, mock-infected, CC50 nM in MT-4, MT-4 cells, 5 days incubation), the CC50 at 5 days came out at 3540 nM. Moreover, the Emax at 24 h, 15 µM at PXR (15 μM, relative to maximum fold induction by 10 or 20 μM rifampicin, DPX2 cells, 24 hours, read-out: % Emax at 15 μM) was 21%.
In series [2] (beagle, in vivo, iv), `O=C(NCc1c(F)cc(F)cc1F)c1cn2c(c(O)c1=O)C(=O)N1[C@H]3CC[C@H](C3)[C@H]1C2` [Compound 55, (1R,4S,12aS)-7-hydroxy-6,8-dioxo-N-(2,4,6-trifluorobenzyl)-1,2,3,4,6,8,12,12a-octahydro-1,4-methanodipyrido[1,2-a:1′,2′-d]pyrazine-9-carboxamide] had an MRT of 4.2 h and a clearance of 0.967 mL/min/kg. Moreover, the Vd in series [2] (setting [3]) is 0.24 L/kg. In addition, the IC50 on OCT2 is 0.476 µM. The same compound returned a CC50 at 5 days in “in vitro” (CC50 nM in MT-4) of 11100 nM. The Emax at 24 h, 15 µM at PXR is 24%.
Consider `C[C@@H](NC(=O)c1cn2c(c(O)c1=O)C(=O)N1[C@H]3CC[C@H](C3)[C@@H]1C2)c1c(F)cc(F)cc1F` [Compound 77, (1R,4S,12aR)-7-hydroxy-6,8-dioxo-N—((R)-1-(2,4,6-trifluorophenyl)ethyl)-1,2,3,4,6,8,12,12a-octahydro-1,4-methanodipyrido[1,2-a:1′,2′-d]pyrazine-9-carboxamide], for which, in series [2] (beagle, in vivo, iv), the MRT was found to be 2.2 h and the clearance is 5 mL/min/kg. Moreover, the Vd in series [2] (setting [3]) was 0.64 L/kg. Moreover, 3.83 µM corresponded to half-maximal inhibition at OCT2 (IC50). Also, the CC50 at 5 days in “in vitro” (CC50 nM in MT-4) came to 10100 nM. The compound further showed a maximal effect (Emax) at 24 h, 15 µM on PXR of 11%.
In series [2] (beagle, in vivo, iv), `O=C(NCc1c(F)cc(F)cc1F)c1cn2c(c(O)c1=O)C(=O)N1[C@H](C2)[C@H]2C[C@@H]1C(F)(F)C2` [Compound 83, (1S,4R,12aS)-3,3-difluoro-7-hydroxy-6,8-dioxo-N-(2,4,6-trifluorobenzyl)-1,2,3,4,6,8,12,12a-octahydro-1,4-methanodipyrido[1,2-a:1′,2′-d]pyrazine-9-carboxamide] had an MRT of 2.4 h and a clearance of 2.68 mL/min/kg. Moreover, in series [2] (setting [3]), the Vd turned out to be 0.38 L/kg. In addition, on OCT2 (setting [4]), the IC50 worked out at 10 µM. The same compound yielded a CC50 at 5 days in the series “in vitro” (CC50 nM in MT-4) of 27500 nM. At PXR, this compound came in with an Emax at 24 h, 15 µM of 1%.
In series [2] (beagle, in vivo, iv), `O=C(NCc1c(F)cc(F)cc1F)c1cn2c(c(O)c1=O)C(=O)N1[C@@H](C2)[C@H]2C[C@@H]1C(F)(F)C2` [Compound 98, (1S,4R,12aR)-3,3-difluoro-7-hydroxy-6,8-dioxo-N-(2,4,6-trifluorobenzyl)-1,2,3,4,6,8,12,12a-octahydro-1,4-methanodipyrido[1,2-a:1′,2′-d]pyrazine-9-carboxamide] had an MRT of 3.3 h and a clearance of 0.783 mL/min/kg. Besides, the Vd in series [2] (setting [3]) stood at 0.16 L/kg. On OCT2 (setting [4]), the IC50 is 3.73 µM. The compound also displayed a CC50 at 5 days in “in vitro” (CC50 nM in MT-4) of 17900 nM. In addition, at PXR, the maximum response (Emax) at 24 h, 15 µM worked out at 0%.

For the origin of these results see patent US9663528B2, “Substituted 1,2,3,4,6,8,12,12a-octahydro-1,4-methanodipyrido[1,2-a:1',2'-d]pyrazines and methods for treating viral infections” (priority 2012, dated 2017).
